Values of other authors in patent publication US20220378756A1, “ACTIVATING PYRUVATE KINASE R” (FORMA Therapeutics, Inc., priority 2019, published 2022).
Read-outs that look alike come from different tables or passages of the source.

Experiments:
[1] = target: T1, aromatase (Homo sapiens, UniProt P11511); conditions: Yang et al. 2018; Grace et al. 2019; cited from earlier work
T1 sequence (P11511 1-503): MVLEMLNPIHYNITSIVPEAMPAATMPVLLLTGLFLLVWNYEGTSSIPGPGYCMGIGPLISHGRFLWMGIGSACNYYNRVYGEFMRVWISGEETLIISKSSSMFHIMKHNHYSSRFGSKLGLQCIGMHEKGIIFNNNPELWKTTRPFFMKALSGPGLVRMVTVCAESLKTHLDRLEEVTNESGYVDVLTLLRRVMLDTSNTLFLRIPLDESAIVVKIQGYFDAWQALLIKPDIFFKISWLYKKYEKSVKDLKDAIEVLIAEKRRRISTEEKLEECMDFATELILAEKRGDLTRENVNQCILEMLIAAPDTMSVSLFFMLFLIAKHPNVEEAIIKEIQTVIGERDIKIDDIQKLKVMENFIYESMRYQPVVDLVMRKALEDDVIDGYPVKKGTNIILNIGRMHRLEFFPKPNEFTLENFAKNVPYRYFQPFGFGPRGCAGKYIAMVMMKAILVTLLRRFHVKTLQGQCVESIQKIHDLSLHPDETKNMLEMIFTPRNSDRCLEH

[2] = cited from earlier work

| SMILES | aromatase inhibition [1] | AUC increase with high-fat, high-calorie meal vs fasted ([2]; plasma) | Cmax increase with high-fat, high-calorie meal vs fasted ([2]; plasma) | steady state AUC higher in HbSC vs HbSS genotype patients ([2]; plasma) | steady state Cmax higher in HbSC vs HbSS genotype patients ([2]; plasma) | AUC increase with high-fat, high-calorie meal vs fasted ([2]; whole blood) | Cmax increase with high-fat, high-calorie meal vs fasted ([2]; whole blood) | steady state AUC higher in HbSC (n=11) vs HbSS (n=220) genotype patients ([2]; whole blood) | steady state Cmax higher in HbSC (n=11) vs HbSS (n=220) genotype patients ([2]; whole blood) |
| --- | --- | --- | --- | --- | --- | --- | --- | --- | --- |
| O=C(c1ccc(NS(=O)(=O)c2cccc3cccnc23)cc1)N1CCN(CC2CC2)CC1 [AG-348] | Aromatase inhibition has been observed | – | – | – | – | – | – | – | – |
| CC(C)n1nccc1-c1ncccc1COc1cccc(O)c1C=O [voxelotor, 2-hydroxy-6-((2-(1-isopropyl-1H-pyrazol-5-yl)pyridin-3-yl)methoxy)benzaldehyde] | – | 42% | 95% | 23% | 15% | 42% | 45% | 50% | 45% |
